In patent US8969407B2, “Administration of coumarin, butylated hydroxyanisole and ethoxyquine for the treatment of canities” (L'Oreal, priority 2006, dated 2015):

Tested on: normal human melanocytes (NHM)
Experiment: Measurement of reactive oxygen species (ROS) generated by an H2O2 stress in cultured normal human melanocytes
Assay type: cell-based
Details: NHM pretreated 12 h/18 h at 37° C. with compound; 250 μM H2O2; fluorescence after 15 minutes; FIG. 1
Procedure: 1-A-1. Protocol for Measuring the Reactive Oxygen Species (ROS) Generated by an H2O2 Stress in Cultured Normal Human Melanocytes (NHM): The normal human melanocytes (NHMs) were inoculated at DO at the density of 4×10^4 cells/cm^2. At D1, the culture medium was replaced with the 10 μM solution of 6-carboxy-2',7'-dichlorodihydrofluorescein diacetate, di[acetoxymethyl ester] in PBS (H2DCFDA, C2938, Molecular Probes). After 20 minutes, the H2DCFDA solution was replaced with the culture medium. The NHMs were left for 30 minutes before adding the H2O2 solution (250 μM). The fluorescence was measured after 15 minutes in a fluoroscan (excitation: 485 nm, emission: 538 nm). The compounds studied were used depending on their properties (concentration, preincubation time). N-Acetylcysteine ([…]-Sigma) was used as a reference molecule. The melanocytes were pretreated, 12 h/18 h at 37° C., with the compound studied in the culture medium, before being brought into contact for 20 minutes with H2DCFDA (10 μM in PBS). […] The fluorescence was measured after 15 minutes in a fluoroscan (excitation: 485 nm, emission: 538 nm). The results represent the crude fluorescence data, from which the autofluorescence values of “blank” cells, expressed in fluorescence units (fu), obtained during a representative experiment, have been deducted.

CCOc1ccc2c(c1)C(C)=CC(C)(C)N2 [ethoxyquine, 6-ethoxy-2,2,4-trimethyl-1H-quinoline]
ROS induced by H2O2 (H2DCFDA fluorescence): decrease of the reactive oxygen species
